Results from US20250101077A1, “PEPTIDES AND PHARMACEUTICAL COMPOSITION FOR THE TREATMENT OF TUMOURS” (UNIVERSIDAD DE SALAMANCA, priority 2022, published 2025).

What was measured:
[1] = system: G166 human glioblastoma stem cells; assay: MTT colour viability test and phase-contrast images; type: cell-based; conditions: 50 μM; for proliferation and survival of human glioblastoma stem cells: phase-contrast images at 48h and MTT at 0, 24, 48 and 72h, FIGS. 5 and 6; for morphology and viability of glioblastoma stem cells (MTT assay): FIG. 1
Method: The human glioblastoma stem cell line G166 was obtained from Biorep, deposited and characterised in Pollard et al., Cell Stem Cell. 4(6):568-80 (2009). The human glioblastoma stem cell line E22 was also obtained from Pollard lab (U. Edinburgh).
In all these cases, cells were cultured in neurobasal culture medium supplemented with 2% B27, 1% N2, 20 ng/mL EGF and 20 ng/mL bFGF, in laminin-coated culture plates, to generate adherent cell cultures. Thanks to their self-renewal capacity, when these cells are expanded in adherent cultures under these culture conditions, they maintain the above-mentioned properties, i.e. the characteristic glioblastoma stem cell phenotype and genotype, including their tumourigenicity, for more than 20 passages.
(§1) Different peptides based on the 266-283 sequence of Cx43 fused to TAT at its N-terminal end were used, all at a concentration of 50 μM, in culture medium and their effect was analysed at different treatment times. In parallel, these cells were analysed in the absence of treatment (control), in the presence of the antitumour peptide TAT-Cx43266-283 ([…]; corresponding to the peptide described in patent WO2014191608 A1 linked to the cell internalisation sequence TAT; SEQ ID NO: 35) and in the presence of the peptides without antitumour activity, TAT (YGRKKRRQRRR; SEQ ID NO: 7) and TAT-Cx43274-291 (YGRKKRRQRRR PTAPLSPMSPPGYKLVTG; SEQ ID NO: 26). For pull-down assays and visualization the peptides were fused to biotin via a C-terminal lysine.
For this study, cells were seeded at low density and the number of viable cells was determined at different days of treatment. For this purpose, the medium was removed and the cells were incubated with 300 μL of PBS in the presence of MTT (0.5 mg/mL) for 75 minutes in the dark at 37° C. in a CO2 incubator. The medium was then removed, and 500 μL of DMSO was added. The cells were shaken in the dark for 10 minutes. Finally, absorbance was determined at 570 nm.

albumin = albumin (Homo sapiens, UniProt P02768); assay: Albumin binding by Western blot under native or denaturing and reducing conditions; conditions: 2.5 μM biotinylated peptide plus 0.1% (w/v) albumin in PBS, native conditions, FIG. 8
Method: FIG. 8. TAT-Cx43266-283 and TAT-Cx43266-275 bind to albumin via a cysteine dependent mechanism. TAT, TAT-Cx43274-291, TAT-Cx43266-283, TAT-Cx43266-283F/A, TAT-Cx43266-283C/A and TAT-Cx43266-275 were fused to biotin to allow their analysis by Western blot. Solutions of each peptide plus albumin in PBS were analyzed in native (N) or denaturing and reducing conditions (DR) to identify their interaction with albumin. […] Note that the sensitivity of the Ponceau staining was not enough to detect the peptide at about 10 kDa, therefore only albumin bands are shown. […] Note that TAT-Cx43266-283 and TAT-Cx43266-275 appear bound to albumin under native conditions while denaturation and reduction promoted the release of these peptides.
Western blotting was performed as described previously (Jaraiz-Rodriguez, M. et al., Neuro-Oncology, 22, 493-504 (2020)). Briefly, 2.5 μM biotinylated peptides plus 0.1% (w/v) albumin in PBS were analysed by Western blot under native (N) or denaturing and reducing (DR) conditions. For native conditions, samples were analysed without further treatment. For denaturing and reducing conditions samples were treated with 0.1 M β-mercaptoethanol and 4% SDS and heated at 99° C. for 5 min. Samples were subjected to electrophoresis on NuPAGE Novex Bis-Tris 4-12% Midi gels (Life Technologies) at room temperature and constant voltage. Proteins were transferred to a nitrocellulose membrane (iBlot Gel Transfer Stacks Nitrocellulose) using an iBlot dry blotting system (Life Technologies). Membranes were incubated with Ponceau S staining solution for protein staining in red. After washing the membranes were blocked with 5% non-fat dry milk in PBS and then incubated with HRP-Streptavidin (1:5000; Dako P0397) for 30 minutes at room temperature. After extensive washing, the membranes were developed with a chemiluminescent substrate (Western Blotting Luminol Reagent; Santa Cruz Biotechnology) in a MicroChemi imaging system (Bioimaging Systems).

Csk = target: T1, Csk (Homo sapiens, UniProt P41240); assay: Pull-down of biotinylated peptides with NeutrAvidin beads, Western blot; type: binding; conditions: 50 μM biotinylated peptide, 30 min, E22 glioblastoma stem cells, FIG. 9
T1 construct: endogenous in cells; host or cells: human E22 glioblastoma stem cells
T1 sequence (P41240 whole entry): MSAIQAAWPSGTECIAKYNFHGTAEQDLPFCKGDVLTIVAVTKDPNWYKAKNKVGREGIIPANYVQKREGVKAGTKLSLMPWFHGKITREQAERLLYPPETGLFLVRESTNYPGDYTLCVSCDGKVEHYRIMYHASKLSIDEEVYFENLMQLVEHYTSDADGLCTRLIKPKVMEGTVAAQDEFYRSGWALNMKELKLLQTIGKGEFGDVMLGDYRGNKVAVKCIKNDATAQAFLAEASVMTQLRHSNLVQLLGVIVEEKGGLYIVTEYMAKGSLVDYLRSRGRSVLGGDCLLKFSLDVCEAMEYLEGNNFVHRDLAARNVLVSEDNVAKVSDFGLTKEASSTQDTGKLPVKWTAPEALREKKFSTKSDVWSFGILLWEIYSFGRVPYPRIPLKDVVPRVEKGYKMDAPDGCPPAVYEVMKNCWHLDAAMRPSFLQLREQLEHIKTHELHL
Method: (§2) FIG. 9. Intracellular interactions of biotinylated TAT-Cx43266-283, TAT-Cx43266-283C/A and TAT-Cx43266-275 in human glioblastoma stem cells. Human E22 glioblastoma stem cells were incubated with 50 μM biotinylated TAT-Cx43266-283, TAT-Cx43266-283C/A and TAT-Cx43266-275. After 30 min the cells were lysed and biotinylated peptides attached to their intracellular partners were pulled down with NeutrAvidin beads. The eluted proteins were loaded and analyzed by Western blot to study the levels of c-Src, Y416-Src, and Csk.
(§3) Pulldown experiments were performed as described in González-Sánchez A. et al., Oncotarget, 7(31):49819-49833 (2016); Jaraiz-Rodriguez M. et al., J Vis Exp. (130):56457 (2017)). Confluent cells grown in 25 cm^2 flasks were incubated with 50 μM biotinylated peptides for 30 min. Proteins were then collected in 0.5 ml of lysis buffer (20 mM Tris-HCl (pH 8.0), 137 mM NaCl, 1% IGEPAL, 1 mM PMSF, protease cocktail (1:100; Cocktail Ill, Calbiochem), 1 mM NaF and 0.1 mM Na3VO4). Lysates were centrifuged at 11000×g for 10 minutes at 4° C., and the supernatants were recovered. A 50-μl aliquot of each lysate was used to analyze the protein content, and the remaining lysate was incubated with NeutrAvidin-Agarose (Thermo Scientific, Rockford, IL, USA; Ref. 29200) for 12 h at 4° C. with gentle shaking. The avidin beads bound with the peptides were collected by centrifugation (3000×g for 1 minutes at 4° C.). The beads were then washed five times with lysis buffer, and the bound proteins were eluted and analyzed by Western blotting under denaturing and reducing contidions. The membranes were blocked with 5% non-fat dry milk in PBS-T and then incubated overnight at 4° C. with the primary antibodies against rabbit CSK (1:250; Cell Signaling Technology, Ref. 4980), rabbit Y416 Src (1:250, Cell Signaling Technology, Ref. 2101) and mouse total c-Src (1:500, Cell Signaling Technology, Ref. 2110). To detect biotinylated peptides, the membranes were incubated with HRP-conjugated streptavidin in PBS (1:5000; Dako Ref.P0397) for 30 minutes and then developed with a chemiluminescent substrate.

Y416-Src = target: T2, Y416-Src (Homo sapiens, UniProt P12931); assay: as above; type: binding; conditions: 50 μM biotinylated peptide, 30 min, E22 glioblastoma stem cells, FIG. 9
T2 construct: endogenous in cells; host or cells: human E22 glioblastoma stem cells
Method: as §2, §3

c-Src [2] = target: T3, c-Src (Homo sapiens, UniProt P12931); assay: as above; type: binding; design: the cells were lysed and biotinylated peptides attached to their intracellular partners were pulled down with NeutrAvidin beads; endogenous in cells; host or cells: human E22 glioblastoma stem cells; conditions: 50 μM biotinylated peptide, 30 min, E22 glioblastoma stem cells, FIG. 9
Method: as §2
as §3, with “To detect biotinylated peptides, the membranes were incubated with HRP-conjugated streptavidin in PBS (1:5000; Dako Ref.P0397) for 30 minutes and then developed with a chemiluminescent substrate.” left out

[3] = system: human glioblastoma stem cells; assay: Internalisation of biotin-fused peptides; type: cell-based; conditions: peptides fused to biotin
Method: as §1

[4] = system: G166 human glioblastoma stem cells; assay: Migration by live cell microscope videos; type: cell-based; conditions: 50 μM, frames every 100 minutes, FIG. 7
Method: FIG. 7. Representative images of the effect of Cx43-based penetrating peptides on the migration of human glioblastoma stem cells. G166 human glioblastoma stem cells were treated in the absence (control) or presence of TAT-Cx43266-283 or TAT-Cx43266-275, both at a concentration of 50 μM. Phase-contrast videos of the cells were made using a live cell microscope. Shown are 3 representative frames taken every 100 minutes of the cells in the control condition, TAT-Cx43266-283 and TAT-Cx43266-275. 3 cells in each condition have been selected and numbered.
Migration is the cause of these tumour cells invading the surrounding parenchyma, escaping surgery and causing the recurrence of these tumours, which is the main cause of mortality.

[5] = system: human and mouse glioblastoma stem cells; conditions: in vitro and in vivo, from cited publications; cited from earlier work
c-Src [6] = target: T3, c-Src; conditions: from cited publications; cited from earlier work

YGRKKRRQRRR (Cell internalisation sequence) [TAT, reference compound]
proliferation and survival of human glioblastoma stem cells [1]: do not produce significant effects

YGRKKRRQRRR PTAPLSPMSPPGYKLVTG (YGRKKRRQRRRPTAPLSPMSPPGYKLVTG) [TAT-Cx43274-291, reference compound]
proliferation and survival of human glioblastoma stem cells [1]: do not produce significant effects

YGRKKRRQRRRAYANGCSSPTAPLSPMSP [TAT-Cx43266-283 F/A]
tumour cell morphology and viability (MTT assay) ([1]; 48h, FIG. 4): affects tumour cell morphology and viability, but to a much lesser extent
binding to albumin (albumin): did not affect the interaction with albumin

YGRKKRRQRRRAYFNGASSPTAPLSPMSP [TAT-Cx43266-283 C/A]
intracellular interaction with Csk (Csk): did not show significant interactions
intracellular interaction with Y416-Src (Y416-Src): did not show significant interactions
morphology and viability of glioblastoma stem cells (MTT assay) ([1]; 48h): very similar to that of untreated (control) cells
binding to albumin (albumin): disrupted albumin-peptide interaction
intracellular interaction with c-Src (c-Src [2]): did not show significant interactions

YGRKKRRQRRRAYFNGCSSPT [TAT-Cx43266-275]
intracellular interaction with Csk (Csk): interact preferentially
intracellular interaction with Y416-Src (Y416-Src): interact preferentially
internalisation in human glioblastoma stem cells [3]: able to be internalised
anti-tumour effect compared with the other peptides (MTT assay) ([1]; 0-72h, FIG. 6): significantly higher than the rest of the peptides
proliferation and survival of human glioblastoma stem cells [1]: reduce proliferation and survival
binding to albumin (albumin): bind to albumin under native conditions
migration of human glioblastoma stem cells [4]: reduces the migration
intracellular interaction with c-Src (c-Src [2]): interact preferentially

YGRKKRRQRRRAYFNGCSSPTAP [TAT-Cx43266-277]
internalisation in human glioblastoma stem cells [3]: able to be internalised
proliferation and survival of human glioblastoma stem cells [1]: reduce proliferation and survival

YGRKKRRQRRRAYFNGCSSPTAPLS [TAT-Cx43266-279]
internalisation in human glioblastoma stem cells [3]: able to be internalised
proliferation and survival of human glioblastoma stem cells [1]: reduce proliferation and survival

YGRKKRRQRRRAYFNGCSSPTAPLSPM [TAT-Cx43266-281]
internalisation in human glioblastoma stem cells [3]: able to be internalised
proliferation and survival of human glioblastoma stem cells [1]: reduce proliferation and survival

YGRKKRRQRRRAYFNGCSSPTAPLSPMSP [TAT-Cx43266-283, reference compound]
intracellular interaction with Csk (Csk): interact preferentially
intracellular interaction with Y416-Src (Y416-Src): interact preferentially
internalisation in human glioblastoma stem cells [3]: able to be internalised
antitumour effect [5]: potent antitumour effect
morphology and viability of glioblastoma stem cells (MTT assay) ([1]; 48h): significantly reduces the viability
proliferation and survival of human glioblastoma stem cells [1]: reduce proliferation and survival
binding to albumin (albumin): bind to albumin under native conditions
migration of human glioblastoma stem cells [4]: reduces the migration
c-Src activity (c-Src [6]): inhibit c-Src activity
intracellular interaction with c-Src (c-Src [2]): interact preferentially

YGRKKRRQRRRCSSPTAPLSPMSPPGYK [TAT-Cx43271-287]
glioblastoma stem cell survival and proliferation (MTT assay) ([1]; 72h, FIG. 2): slightly reduces glioblastoma stem cell proliferation

YGRKKRRQRRRFNGCSSPTAPLSPMSP [TAT-Cx43268-283]
ability to reduce proliferation (MTT assay) ([1]; 72h, FIG. 3): less ability to reduce proliferation than TAT-Cx43266-283
